Data set [1] has as its system explant tumor tissue from taxane-refractory breast cancer patients. The experiment in a line: Human refractory breast cancer explant model, glucose uptake. In kind it is cell-based. Particulars: chemotherapy in the presence of hexokinase inhibition, 72 h. How it is done: Anonymous human breast cancer tissues (N=7) from patients refractory to taxane-containing regimens and varying stages of disease were obtained from Mitra Biotech collected under IRB approval from HCG Bangalore Institute of Oncology with due consent. Fresh tumor tissues were collected from breast cancer patients immediately after surgical resection at HCG cancer hospital, Bangalore, India. The tumor samples were transported to the laboratory at 4° C., in appropriate transport buffer within 60 minutes post-resection, for ex-vivo studies and molecular and pathological evaluation. Tissues were cut into thin sections and cultured in 96 well plate using optimized conditions[BISWANATH REF]. Tumors were treated with a taxane, or doxorubicin at Cmax for 72 h. DMSO was used as a vehicle control. After treatment, tumor cell viability was measured. Immunohistochemistry (IHC) was performed as described in methods. Glucose uptake was evaluated 72 h post culture.
Glucose uptake assay was carried 72 hours post culture. Two micro liter of culture supernatant was added to 200 μl of Glucose reagent (Liquixx Glucose Reagent, Erbaa). All readings along with glucose standard (100 mg/dL) were run in triplicate. The plate was incubated at room temperature for 5 minutes on a plate shaker at medium speed and the absorbance was measured at 505 nm using multimode plate reader (Perkin Elmer).

For data set [2], the system named is MDA-MB-231 parent or DTC. Briefly: Cell viability (MTS) and trypan blue exclusion of parent or DTC treated with doxorubicin. It counts as cell-based. The settings on record: co-incubated with dox, 48 h. How it is done: (§1) MDA-MB-231 (ATCC), MDA-MB-468 and 4T-1 mammary carcinoma cells (ATCC) were cultured in DMEM containing 10% Fetal Bovine Serum (FBS) at 37 C and 5% CO2. DU145 and DU145-TxR were provided by A. Mizokami^63 and cultured in DMEM containing 10% FBS, resistant line included 100 nM paclitaxel in the culture media. During treatments with chemotherapeutics, cells were grown to semi-confluence and treated with indicated concentrations of chemotherapy in serum-containing medium for indicated time points. When small molecule inhibitors were included in treatments, they were added simultaneously with chemotherapy. For siRNA gene knockdown, cells were transfected with silencer-select siRNA plasmids (Ambion, Invitrogen, Grand Island, N.Y.) pan-CD44(1) (s2682) panCD44(2) (s2681), siHIF1A (s6539) using lipofectamine 2000 (Invitrogen, Carlsbad Calif.) following manufacturer protocol and cultured for 72 hours prior to treatment. Scrambled siRNA was used as a control. For chemotherapy treatment experiments: Cancer cells were plated at a density of 0.5-1×10^5 cells/ml and allowed to adhere for 24-48 hr. When cells reached ˜70% confluency they were treated with cytotoxics at indicated concentrations for 24-48 hours and utilized for subsequent assays. For experiments in which a shorter incubation was used (i.e. 15 min-4 hours) fresh media was added 24 hours prior to addition of chemotherapy suspended to stock concentration in PBS. For generation of DTC: Cells were treated for 48 hours with chemotherapy. Following washes with PBS, adherent cells were trypsinized and re-plated at a density of 1.5-2×10^5 cells/ml and cultured in serum-containing medium. After 24 hours incubation, floating cells were removed and remaining cells were washed with 1× PBS and considered as chemotherapy-tolerant cells. A population of drug naïve parent cells were always cultured alongside DTC and fresh media was added at every interval that experimental population (DTC) received fresh media.
Following drug incubation, cells were washed and suspended in phenol red-free RPMI or DMEM and subsequently treated with MTS reagent using manufacturer protocol (Promega, Madison, Wis.). Trypan blue exclusion was used to validate experiments and evaluate % of dead cells performed by bright field microscopy.

For data set [3], the system named is mice. The experiment in a line: Systemic toxicity in treated 4T-1 tumor-bearing mice (hair and weight loss, spleen, heart caspase-3). It counts as in vivo.
Protocol: (§2) An in-vivo study was designed creating drug-schedules following successive doses of docetaxel at MTD or vehicle control in distinct groups. […] Finally, in effort to dissect the dosing-response of MADC vs. free drugs, a dose-titration of doxorubicin+PI103 or MADC in sequence with docetaxel was performed. […] Finally, a preliminary bio distribution study of the free doxorubicin or conjugate was performed on heterotopically-implanted 4T-1 syngeneic mammary carcninoma model. Mice were treated with 20 mg/kg equivalent of MADC or Doxorubicin or a vehicle control group (N=3 per group). […] Organ lysate was then centrifuged at 15,000 g and supernatant was filtered through a 0.2 mm filter syringe before aliquoted into quadruplicate wells of a 96-well plate. […] Autofluorescence determined from vehicle-treated control groups was subtracted from experimental groups and final fluorescence was determined as % arbitrary fluorescence units (AFU)/mg tissue as % increase from vehicle treated control values.
For data set [4] the following is noted: 20 mg/kg equivalent, 24 h, heterotopic 4T-1 model.
Protocol: as §2
The subject of data set [5] is 4T-1 mouse mammary carcinoma. It counts as in vivo, mice.
Protocol: Tumor volumes were assessed by the following formula: (Width×Width×length)/2 and values were utilized to calculate tumor specific growth rate (SGR) by the algorhythm (ln [V2/V1]/[t2−t1)] where V=volume and t=time in days^64.
An in-vivo study was designed creating drug-schedules following successive doses of docetaxel at MTD or vehicle control in distinct groups. […] Finally, in effort to dissect the dosing-response of MADC vs. free drugs, a dose-titration of doxorubicin+PI103 or MADC in sequence with docetaxel was performed.
Data set [6] concerns DTC. The experiment in a line: Total intracellular reduced glutathione (GSH) in drug tolerant cells. In kind it is cell-based. Particulars: acute (3 hours) exposure; ML-265 10 μM, catalase 2000 U/ml. The procedure:
In vitro detection of glucose uptake was performed using 2-(N-7-Nitrobenz-2-oxa-1,3-diazol-4-yl)Amino)-2-Deoxyglucose (2-NBDG) (Invitrogen, Carlsbad Calif.), dissolved in DMSO to 50 mM. Cells were pre-treated with kinase inhibitors or vehicle for 3 hours in glucose- and phenol red-free media before addition of 50 μM 2-NBDG and subsequently read by FACS ex/em 488/535 nm. ROS was determined by pre-loading cells with CM-DCFDA (1 μM), washed 2 times with PBS and subsequently treated with H2O2 or vehicle; when kinase inhibitors were included in treatment, cells were first incubated with inhibitor for 3 hours prior to CM-DCFDA loading. Fluorescence was then determined by FACS ex/em 488/535 nm. For the following assays, cells were trypsinized and counted by Nexcelom cell counter (Lawrence, Mass.) prior to being subjected to analysis in order to achieve a quantitative value per cell: Reduced glutathione was determined using a colorimetric glutathione recycling system by DTNB following manufacturer protocol (Biovision, Milpitas Calif.). […] Protein synthesis was measured by two means 1. […] Fluorescence was detected by FACS as described below. […] GFP protein translation was determined by fluorescent microscopy. […] Individual cells were evaluated for fluorescent intensity of caspase-3 activity (red signal intensity) and green fluorescent protein intensity. […]

Data set [7] concerns ROS (hydrogen peroxide). The settings on record: 10-20 uM of paclitaxel; cited from earlier work.
Data set [8] deals with MDA-MB-231 parent or DTC. Briefly: Glucose uptake (2-NBDG) determined by FACS. In kind it is cell-based. Particulars: MDA-MB-231 DTC incubated with catalase for 6 hours. The procedure: as §1
In vitro detection of glucose uptake was performed using 2-(N-7-Nitrobenz-2-oxa-1,3-diazol-4-yl)Amino)-2-Deoxyglucose (2-NBDG) (Invitrogen, Carlsbad Calif.), dissolved in DMSO to 50 mM. Cells were pre-treated with kinase inhibitors or vehicle for 3 hours in glucose- and phenol red-free media before addition of 50 μM 2-NBDG and subsequently read by FACS ex/em 488/535 nm. ROS was determined by pre-loading cells with CM-DCFDA (1 μM), washed 2 times with PBS and subsequently treated with H2O2 or vehicle; when kinase inhibitors were included in treatment, cells were first incubated with inhibitor for 3 hours prior to CM-DCFDA loading. Fluorescence was then determined by FACS ex/em 488/535 nm. For the following assays, cells were trypsinized and counted by Nexcelom cell counter (Lawrence, Mass.) prior to being subjected to analysis in order to achieve a quantitative value per cell: Reduced glutathione was determined using a colorimetric glutathione recycling system by DTNB following manufacturer protocol (Biovision, Milpitas Calif.). ATP analysis was performed using the ATP colorimetric analysis kit (Biovision) according to manufacturer protocol. Reductive stress was detected using the Enzo nitroreductase hypoxia kit (Enzo Life Sciences, Ann Arbor Mich.) following manufacturer protocol and visualized by fluorescent microscopy; a set of non-docetaxel-treated control cells loaded with fluorescent probe were compared against docetaxel-treated cells to derive a % redox stress increase which was calculated as fluorescence intensity of nitroreductase probe per cell and expressed as increase from vehicle. Protein synthesis was measured by two means 1. L-azidohomoalanine amino acid analog of methionine containing an azide moiety was added to cultured cells (parent or DTC) for 3 hours which is incorporated into proteins during active protein synthesis. […]
A general note: In flow cytometry, cells or beads pass a laser one at a time.

For the molecule `O=C(O)c1nn(Cc2ccc(Cl)cc2Cl)c2ccccc12` [Lonidamine], in data set [1], the “glucose uptake of explant tumor tissue” value was “diminished capacity for glucose uptake”. Also, the “response to dox in combination with inhibitor, DTC” value in data set [2] (DTC, PI103 5 μM, lonidamine 10 μM, KB-458 and KB-697 10 μM) is on record as “exquisitely responsive, overtly driven to cell death by dox in combination”. Further, the “response to dox in combination with inhibitor, parent cells” value in data set [2] (drug naïve parent cells) is recorded as “little synergism or a reversion of synergy”.
As to `COc1cccc2c1C(=O)c1c(O)c3c(c(O)c1C2=O)C[C@@](O)(C(=O)COC(=O)NCCSSCCNC(=O)Oc1cccc(-c2nc(N4CCOCC4)c4oc5ncccc5c4n2)c1)CC3OC1C[C@@H](C)[C@@H](O)[C@@H](N)C1` (stereo partly shown) [MADC], in data set [3] (MADC vs. free drug combination groups), the “systemic toxicity (toxic burden)” value is recorded as “significant reduction of toxic burden”. Also, the “hair and weight loss and myelosuppression indicated by splenic miniaturization” value in data set [3] (MADC-treated cohorts vs free drug combination) was “significantly attenuated”. Further, in data set [3] (lower concentration (3 mg/kg), in sequence with docetaxel), the “splenic miniaturization in dose-titration” value is reported as “negligible”. Also, in data set [3] (mouse, in vivo), the “cardiotoxicity (activated caspase-3, immunoblots of whole heart lysate)” value was “lower indication of cardiotoxicity”. Also, the “biodistribution (organ accumulation by fluorescence)” value in data set [4] is “greater concentration of the conjugate in the lung compared to the free drug administration”. Further, the “tumor growth suppression, in sequence with docetaxel” value in data set [5] (given after successive doses of docetaxel at MTD) is reported as “elicited suppression of tumor growth, largely comparable to the combination of free drugs in similar sequence”. The “tumor growth suppression, in sequence with vehicle” value in data set [5] (given after vehicle control) is on record as “operated poorly to suppress tumor growth”. In data set [5] (in sequence with docetaxel, 3 mg/kg), the “dose-titration, tumor growth, lower concentration” value is recorded as “greater effect than free drug combination”. Also, in data set [5] (in sequence with docetaxel, 5 mg/kg and 10 mg/kg), the “dose-titration, tumor growth, 5 mg/kg and 10 mg/kg” value was “saturating concentrations”.
As for `Cn1c2cc([S+](C)[O-])sc2c2cnn(Cc3cccc(N)c3)c(=O)c21` (stereo not shown) [ML-265], the “total levels of reduced glutathione (GSH) in DTC” value in data set [6] is on record as “diminished total levels of reduced glutathione in DTC”.
For `CC(=O)O[C@H]1C(=O)[C@@]2(C)[C@H]([C@H](OC(=O)c3ccccc3)[C@]3(O)C[C@H](OC(=O)[C@H](O)[C@@H](NC(=O)c4ccccc4)c4ccccc4)C(C)=C1C3(C)C)[C@]1(OC(C)=O)CO[C@@H]1C[C@@H]2O` [paclitaxel], the “increase from basal ROS levels” value in data set [7] is on record as 3-5 ×.

B1: catalase: an endogenous modulator of redox stress (protein, UniProt P04040 2-527, looked up)
Catalase: ADSRDPASDQMQHWKEQRAAQKADVLTTGAGNPVGDKLNVITVGPRGPLLVQDVVFTDEMAHFDRERIPERVVHAKGAGAFGYFEVTHDITKYSKAKVFEHIGKKTPIAVRFSTVAGESGSADTVRDPRGFAVKFYTEDGNWDLVGNNTPIFFIRDPILFPSFIHSQKRNPQTHLKDPDMVWDFWSLRPESLHQVSFLFSDRGIPDGHRHMNGYGSHTFKLVNANGEAVYCKFHYKTDQGIKNLSVEDAARLSQEDPDYGIRDLFNAIATGKYPSWTFYIQVMTFNQAETFPFNPFDLTKVWPHKDYPLIPVGKLVLNRNPVNYFAEVEQIAFDPSNMPPGIEASPDKMLQGRLFAYPDTHRHRLGPNYLHIPVNCPYRARVANYQRDGPMCMQDNQGGAPNYYPNSFGAPEQQPSALEHSIQYSGEVRRFNTANDDNVTQVRAFYVNVLNEEQRKRLCENIAGHLKDAQIFIQKKAVKNFTEVHPDYGSHIQALLDKYNAEKPKNAIHTFVQSGSHLAAREKANL
B1: the “total levels of reduced glutathione (GSH) in DTC” value in data set [6] is given as “diminished total levels of reduced glutathione in DTC”. Also, in data set [8], the “glucose consumption (2NBDG uptake) in DTC” value is “reduced potential for glucose consumption”.
